Test results from ChEMBL document CHEMBL1135093, “Phthalazine PDE4 inhibitors. Part 3: the synthesis and in vitro evaluation of derivatives with a hydrogen bond acceptor” (Bioorg Med Chem Lett, 2002).

What was measured:
Type in all cases: protein assay
Phosphodiesterase 4 [1] = biological target: T1, Phosphodiesterase 4 (Homo sapiens, UniProt P27815+Q08499+Q07343+Q08493); experiment: Inhibition of rolipram binding to phosphodiesterase type IV (PDE4)
Phosphodiesterase 4 [2] = biological target: T1, Phosphodiesterase 4; experiment: Inhibition of human phosphodiesterase type IV (PDE4) at 10e-7 M
Phosphodiesterase 4 [3] = biological target: T1, Phosphodiesterase 4; experiment: Affinity for rolipram binding site (RBS) of human neutrophil phosphodiesterase type IV (PDE4)
Phosphodiesterase 4 [4] = biological target: T1, Phosphodiesterase 4; experiment: Inhibition of human neutrophil phosphodiesterase type IV (PDE4)
Phosphodiesterase 4 [5] = biological target: T1, Phosphodiesterase 4; experiment: Selectivity for rolipram binding site over phosphodiesterase 4
Phosphodiesterase 4 [6] = biological target: T1, Phosphodiesterase 4; experiment: Inhibition of rolipram binding to phosphodiesterase type IV (PDE4) at 10e-7 M
Phosphodiesterase 4 [7] = biological target: T1, Phosphodiesterase 4; experiment: Inhibition of rolipram binding to phosphodiesterase type IV (PDE4) at 10e-6 M

Structure (SMILES) | Binding (Phosphodiesterase 4 [1]) | inhibition (Phosphodiesterase 4 [2]) | Ki (Phosphodiesterase 4 [3]) | IC50 (Phosphodiesterase 4 [4]) | Ratio (Phosphodiesterase 4 [5]) | Binding (Phosphodiesterase 4 [6]) | Binding (Phosphodiesterase 4 [7])
COc1ccc2c(Cc3c(Cl)cncc3Cl)nncc2c1 | 42% | 0% |  |  |  |  | 
COc1ccc2c(c1)CN(C=O)N=C2Cc1c(Cl)cncc1Cl |  | 45% | 0.138 µM |  |  |  | 
COc1ccc2c(c1OC1CCCC1)CN(S(C)(=O)=O)N=C2Cc1c(Cl)cncc1Cl |  |  | 0.005 µM | 0.002 µM | 2.5 |  | 
COc1ccc2c(Cc3c(Cl)cncc3Cl)nncc2c1OC1CCCC1 |  |  |  |  | 2.8 |  | 
CCOC(=O)C(=O)N1Cc2cc(OC)ccc2C(Cc2c(Cl)cncc2Cl)=N1 |  |  | 0.212 µM | 0.113 µM | 1.9 |  | 
COc1ccc2c(c1)CN(C(=O)N(C)C)N=C2Cc1c(Cl)cncc1Cl |  | 35% | 0.473 µM |  |  |  | 
COc1ccc2c(c1)CN(S(C)(=O)=O)N=C2Cc1c(Cl)cncc1Cl |  |  | 0.06 µM | 0.021 µM | 2.9 |  | 
COc1ccc2c(c1OC1CCCC1)CN(C(C)=O)N=C2Cc1c(Cl)cncc1Cl |  |  | 0.128 µM | 0.03 µM | 4.3 |  | 
COc1ccc2c(c1)CNN=C2Cc1c(Cl)cncc1Cl |  | 14% |  |  |  |  | 13%

More lines, now with the values ahead:

Binding (Phosphodiesterase 4 [1]) | inhibition (Phosphodiesterase 4 [2]) | Ki (Phosphodiesterase 4 [3]) | IC50 (Phosphodiesterase 4 [4]) | Ratio (Phosphodiesterase 4 [5]) | Binding (Phosphodiesterase 4 [6]) | Binding (Phosphodiesterase 4 [7]) | Structure (SMILES)
 |  | 0.208 µM | 0.085 µM | 2.4 |  |  | COc1ccc2c(c1)CN(C(=O)NO)N=C2Cc1c(Cl)cncc1Cl
 |  | 0.237 µM | 0.028 µM | 8.5 |  |  | CCC(=O)N1Cc2cc(OC)ccc2C(Cc2c(Cl)cncc2Cl)=N1
 |  | 0.235 µM | 0.131 µM | 1.8 |  |  | CNC(=O)N1Cc2cc(OC)ccc2C(Cc2c(Cl)cncc2Cl)=N1
 |  | 0.063 µM | 0.036 µM | 1.7 |  |  | COc1ccc2c(c1)CN(C(N)=O)N=C2Cc1c(Cl)cncc1Cl
 |  | 0.199 µM | 0.072 µM | 2.8 |  |  | COC(=O)N1Cc2cc(OC)ccc2C(Cc2c(Cl)cncc2Cl)=N1
 |  | 0.498 µM | 0.025 µM | 19.9 |  |  | COc1ccc2c(c1)CN(C(=O)C(C)C)N=C2Cc1c(Cl)cncc1Cl
 |  | 0.397 µM | 0.051 µM | 7.8 |  |  | COc1ccc2c(c1)CN(C(C)=O)N=C2Cc1c(Cl)cncc1Cl
 |  |  | 0.03 µM | > 20 | 17% |  | COc1ccc2c(c1)CN(C(=O)c1ccccc1)N=C2Cc1c(Cl)cncc1Cl
 |  |  | 0.012 µM | > 20 | 36% |  | COc1ccc2c(c1)CN(C(=O)Cc1ccccc1)N=C2Cc1c(Cl)cncc1Cl
